Reference: patent US20200368371A1, “DYE-PROTEIN COMPLEX FOR NIR II AND PHOTOACOUSTIC IMAGING” (The Board of Trustees of the Leland Stanford Junior …, priority 2019, published 2020)

Tests used:
[1] = Fluorescence intensity at different concentrations of IR-820 in deionized water and PBS; type: physicochemical
Method: IR-820 was first dissolved in deionized water, and then added to deionized water or PBS to determine the optimal concentration. […] 10 μM was determined as the concentration for other studies. […] Different HSA: IR-820 ratios were prepared while keeping IR-820 at a constant 10 μM to determine the approximate binding stoichiometry.

[2] = Absorbance spectra in deionized water; type: physicochemical; settings: DI water
Excerpt: Absorbance spectra of IR-820 and complexes were taken on an ultraviolet-visible-NIR Cary 60 spectrometer (Agilent Technologies) with background correction.

C57BL/6 mice = assay: In vivo NIR-II imaging of lymphatic system
Method: A gentle massage was performed on the injection site for faster diffusion into the lymphatic system.
Before imaging, all mice were anesthetized in a rodent anesthesia machine with 2 L/min O^2 gas mixed with 3% Soflurane. C57BL/6 mice were used for the vascular and lymphatic system NIR-II imaging. […] A gentle massage was performed at the injection site to increase the speed of diffusion into the lymphatic system. […] All groups within the study contained n=3 mice.
All NIR-II images were collected on a two-dimensional InGaAs array NIR-II system (Princeton Instruments). The excitation was provided by an 808 nm diode laser through an optical fiber and collimator. Fluorescence emission was collected with 1000 nm or more than 1000 nm long-pass filters (Thorlabs). A lens set was used to obtain tunable magnifications ranging from 1× (whole body) to 2.5× (high magnification) by changing the relative position of two NIR achromats (75 mm and 200 mm, Thorlabs). Image J software were used for analyzing the images.
The fluorescence measurement was performed to quantify NIR-II fluorescence signal intensity through the Image J software (National Institutes of Health, Bethesda, Md.). The line graphs and Gaussian-fitted FWHM were analysis by origin 8.5 (OriginLab Corporation, Northampton, Mass.).

[3] = all light conditions; cited from earlier work
[4] = prone position, subcutaneous footpad injection

SMILES: CC1(C)C(=CC=C2CCCC(C=CC3=[N+](CCCCS(=O)(=O)[O-])c4ccc5ccccc5c4C3(C)C)=C2Cl)N(CCCCS(=O)(=O)[O-])c2ccc3ccccc3c21.[Na+] [IR-820]
- behaviour in PBS [1]: poor solubility or severe quenching
- absorbance strong peak [2]: 690 nm
- absorbance weak shoulder [2]: 815 nm
- identification of the inguinal lymph node (C57BL/6 mice; left side, subcutaneous injection): failed
- FWHM of lymphatic vessels (C57BL/6 mice; [4]): unmeasurable
- SBR of lymphatic vessels (C57BL/6 mice; [4]): 1.33
- stability in aqueous solution [3]: greater stability than ICG
